US20250340661A1, “ANTI CD40 ANTIBODY, ANTIGEN BINDING FRAGMENT AND MEDICAL USE THEREOF” (Jiangsu Hengrui Pharmaceuticals Co., Ltd., priority 2021, published 2025)

System: human CD40 transgenic mice
Experiment: Mouse skin graft rejection model
Type: in vivo
Conditions: for Skin graft score: 3 mpk
Description: Male Balb/c mice, 6 weeks old, were purchased from the Laboratory Animal Management Department, Shanghai Institute of Planned Parenthood Research. Housing environment: SPF; certification number: 20180006023393.
On day −2 of the experiment, the mice were intraperitoneally injected with tacrolimus FK506 or CD40 antagonistic antibodies. On day 0 of the experiment, donor Balb/c mice and C57BL6/J mice were anesthetized with 4% chloral hydrate. The tails of the donor mice were removed, and full circles of skin, 1 cm in length, were isolated from the tails. The hair on the acceptor mice's back was removed, and an incision was made along the skin layer. An equal area of skin was removed while preserving the back fat and connective tissue. The donor skin was placed on the acceptor mice's incision site, and the incision was closed with glue. The mice were then placed back in cages to recover.
The mice were dosed according to the administration regimens in Table 17. After 7 days of recovery, the mouse skin survival was observed daily and rejection scores were recorded.

C=CC[C@@H]1/C=C(\C)C[C@H](C)C[C@H](OC)[C@H]2O[C@@](O)(C(=O)C(=O)N3CCCC[C@H]3C(=O)O[C@H](/C(C)=C/[C@@H]3CC[C@@H](O)[C@H](OC)C3)[C@H](C)[C@@H](O)CC1=O)[C@H](C)C[C@@H]2OC [FK506, tacrolimus, reference compound]
Skin graft score (8 days, scale 3 (no rejection) to 0): 2.5 | Skin graft score (10 days, scale 3 to 0): 1.5 | Skin graft score (15 days, scale 3 to 0): 0.5 | Skin graft score (20 days, scale 3 to 0): 0 | Skin graft survival rate (%) (Day 15, 3 mpk ip): 16.7%
